Read-outs that look alike come from different tables or passages of the source.
Experiments:
PI3K-γ = PI3K-γ (Homo sapiens, UniProt P48736); experiment: PI3K-gamma fluorescence polarization assay
Human mTOR (FLAG-TOR) = Human mTOR (FLAG-TOR) (Homo sapiens, UniProt P42345); experiment: mTOR kinase assay (DELFIA format, purified enzyme); format: biochemical; conditions: read-out: IC50 mTOR
PI3K-α = PI3K-α (Homo sapiens, UniProt P42336); experiment: PI3K-alpha fluorescence polarization assay; conditions: read-out: IC50 PI3Kα
PI3K-α, sequence (P42336 whole entry, species assumed): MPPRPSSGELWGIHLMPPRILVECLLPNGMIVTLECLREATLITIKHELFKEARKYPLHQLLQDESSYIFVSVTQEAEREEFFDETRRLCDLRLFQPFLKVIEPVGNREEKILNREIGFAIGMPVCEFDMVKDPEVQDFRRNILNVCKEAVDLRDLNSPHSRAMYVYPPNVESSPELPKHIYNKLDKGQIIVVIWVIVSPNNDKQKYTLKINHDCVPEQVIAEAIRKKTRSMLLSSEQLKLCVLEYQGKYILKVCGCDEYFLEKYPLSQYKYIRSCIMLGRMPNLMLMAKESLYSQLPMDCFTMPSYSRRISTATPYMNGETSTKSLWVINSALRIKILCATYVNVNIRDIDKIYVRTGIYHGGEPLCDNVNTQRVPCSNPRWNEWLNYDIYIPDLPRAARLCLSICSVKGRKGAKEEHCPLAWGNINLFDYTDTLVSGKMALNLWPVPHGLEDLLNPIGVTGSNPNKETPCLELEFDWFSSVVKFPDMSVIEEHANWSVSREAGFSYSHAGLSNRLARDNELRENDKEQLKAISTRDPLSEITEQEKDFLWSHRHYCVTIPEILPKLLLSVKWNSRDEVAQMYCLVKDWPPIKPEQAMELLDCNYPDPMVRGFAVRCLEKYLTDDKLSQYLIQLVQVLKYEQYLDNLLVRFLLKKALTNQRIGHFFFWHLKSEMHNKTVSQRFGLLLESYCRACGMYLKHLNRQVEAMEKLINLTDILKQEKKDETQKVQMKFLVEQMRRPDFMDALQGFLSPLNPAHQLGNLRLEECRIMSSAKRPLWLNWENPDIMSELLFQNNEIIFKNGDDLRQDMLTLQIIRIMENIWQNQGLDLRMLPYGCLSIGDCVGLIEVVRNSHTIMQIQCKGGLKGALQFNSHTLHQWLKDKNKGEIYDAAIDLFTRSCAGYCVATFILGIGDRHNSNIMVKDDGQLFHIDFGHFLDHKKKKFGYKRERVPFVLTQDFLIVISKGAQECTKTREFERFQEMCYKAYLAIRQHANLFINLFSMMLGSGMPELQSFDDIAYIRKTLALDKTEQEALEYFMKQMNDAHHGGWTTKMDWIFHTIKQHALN
PI3K-α, sequence (P27986 whole entry partner, species assumed): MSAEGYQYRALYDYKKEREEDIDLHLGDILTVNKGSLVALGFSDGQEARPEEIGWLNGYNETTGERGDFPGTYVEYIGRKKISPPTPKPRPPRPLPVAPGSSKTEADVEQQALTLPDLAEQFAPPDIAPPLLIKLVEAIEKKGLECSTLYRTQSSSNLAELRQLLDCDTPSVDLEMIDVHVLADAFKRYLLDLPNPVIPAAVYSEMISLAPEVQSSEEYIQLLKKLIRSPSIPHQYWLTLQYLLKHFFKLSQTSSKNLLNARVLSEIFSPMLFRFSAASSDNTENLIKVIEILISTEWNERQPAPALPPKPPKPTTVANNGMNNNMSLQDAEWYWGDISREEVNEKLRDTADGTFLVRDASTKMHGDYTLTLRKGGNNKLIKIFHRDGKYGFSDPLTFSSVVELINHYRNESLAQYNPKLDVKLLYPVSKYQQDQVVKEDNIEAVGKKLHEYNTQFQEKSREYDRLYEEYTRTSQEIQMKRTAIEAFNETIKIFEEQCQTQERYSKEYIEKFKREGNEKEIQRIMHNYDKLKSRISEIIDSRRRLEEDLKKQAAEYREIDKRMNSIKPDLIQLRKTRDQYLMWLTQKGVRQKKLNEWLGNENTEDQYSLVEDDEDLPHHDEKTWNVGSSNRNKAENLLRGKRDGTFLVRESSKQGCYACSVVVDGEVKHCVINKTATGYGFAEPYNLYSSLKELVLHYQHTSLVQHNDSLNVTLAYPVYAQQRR

PI3K-γ, sequence (P48736 whole entry, species assumed): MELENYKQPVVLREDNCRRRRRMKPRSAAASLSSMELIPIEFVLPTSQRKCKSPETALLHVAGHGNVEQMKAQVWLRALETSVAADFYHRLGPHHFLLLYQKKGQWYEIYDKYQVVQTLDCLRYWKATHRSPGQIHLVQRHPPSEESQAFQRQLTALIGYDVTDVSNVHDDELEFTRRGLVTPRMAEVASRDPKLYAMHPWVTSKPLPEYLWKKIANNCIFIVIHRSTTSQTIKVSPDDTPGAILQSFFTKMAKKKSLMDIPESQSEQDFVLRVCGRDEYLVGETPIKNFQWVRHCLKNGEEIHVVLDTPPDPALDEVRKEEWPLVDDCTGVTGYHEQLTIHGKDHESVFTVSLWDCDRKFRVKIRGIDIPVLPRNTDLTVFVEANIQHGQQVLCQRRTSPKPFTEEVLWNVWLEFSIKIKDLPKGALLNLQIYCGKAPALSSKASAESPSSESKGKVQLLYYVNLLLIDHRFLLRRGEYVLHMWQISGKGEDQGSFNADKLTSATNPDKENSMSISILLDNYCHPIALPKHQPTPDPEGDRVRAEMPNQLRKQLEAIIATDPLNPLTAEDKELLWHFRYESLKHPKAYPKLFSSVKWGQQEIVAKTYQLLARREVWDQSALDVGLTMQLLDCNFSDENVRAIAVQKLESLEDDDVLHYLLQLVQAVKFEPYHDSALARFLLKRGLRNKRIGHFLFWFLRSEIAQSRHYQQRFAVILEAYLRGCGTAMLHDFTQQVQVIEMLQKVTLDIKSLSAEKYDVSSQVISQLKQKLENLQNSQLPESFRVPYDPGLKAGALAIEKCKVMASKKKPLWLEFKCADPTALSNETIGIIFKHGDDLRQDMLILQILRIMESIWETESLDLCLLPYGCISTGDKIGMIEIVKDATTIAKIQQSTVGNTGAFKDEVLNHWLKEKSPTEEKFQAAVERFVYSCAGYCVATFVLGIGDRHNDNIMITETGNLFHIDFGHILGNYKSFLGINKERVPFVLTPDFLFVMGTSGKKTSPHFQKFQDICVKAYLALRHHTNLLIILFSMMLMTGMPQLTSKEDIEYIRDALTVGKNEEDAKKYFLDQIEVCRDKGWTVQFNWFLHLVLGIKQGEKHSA
Human mTOR (FLAG-TOR), sequence (P42345 1360-2549 limits assumed): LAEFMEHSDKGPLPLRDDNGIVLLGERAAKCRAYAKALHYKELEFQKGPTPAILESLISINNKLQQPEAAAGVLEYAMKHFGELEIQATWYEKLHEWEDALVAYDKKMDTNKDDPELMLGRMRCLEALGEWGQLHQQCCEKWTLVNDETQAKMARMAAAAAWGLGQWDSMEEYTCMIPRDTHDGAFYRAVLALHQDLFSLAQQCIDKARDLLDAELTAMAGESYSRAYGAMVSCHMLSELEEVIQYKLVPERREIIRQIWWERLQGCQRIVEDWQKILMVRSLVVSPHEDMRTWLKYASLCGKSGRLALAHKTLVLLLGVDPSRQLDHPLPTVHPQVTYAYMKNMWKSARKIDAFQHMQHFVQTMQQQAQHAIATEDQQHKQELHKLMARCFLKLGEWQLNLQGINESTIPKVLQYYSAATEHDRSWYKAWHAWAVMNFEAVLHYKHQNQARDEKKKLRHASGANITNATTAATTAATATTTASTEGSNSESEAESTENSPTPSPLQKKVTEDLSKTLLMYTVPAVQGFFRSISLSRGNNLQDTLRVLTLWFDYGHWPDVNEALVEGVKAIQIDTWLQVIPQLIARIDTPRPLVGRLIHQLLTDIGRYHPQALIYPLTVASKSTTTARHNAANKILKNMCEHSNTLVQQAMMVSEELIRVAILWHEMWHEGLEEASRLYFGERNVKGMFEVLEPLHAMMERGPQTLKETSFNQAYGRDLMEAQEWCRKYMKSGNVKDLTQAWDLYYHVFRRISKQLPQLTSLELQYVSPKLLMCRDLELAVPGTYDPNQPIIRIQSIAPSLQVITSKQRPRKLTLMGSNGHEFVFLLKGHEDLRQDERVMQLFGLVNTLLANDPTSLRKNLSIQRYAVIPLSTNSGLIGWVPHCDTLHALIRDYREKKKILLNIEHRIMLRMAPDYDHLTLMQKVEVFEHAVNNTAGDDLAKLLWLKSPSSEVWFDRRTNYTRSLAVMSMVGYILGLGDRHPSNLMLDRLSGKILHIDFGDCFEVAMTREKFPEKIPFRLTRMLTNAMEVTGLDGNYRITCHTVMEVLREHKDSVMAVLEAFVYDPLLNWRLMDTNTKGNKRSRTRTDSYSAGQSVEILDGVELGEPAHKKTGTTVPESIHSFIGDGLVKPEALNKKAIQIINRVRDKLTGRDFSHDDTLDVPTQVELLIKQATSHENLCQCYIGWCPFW

Row | Structure (SMILES) | IC50 (PI3K-γ; read-out: IC50 PI3Kγ) | IC50 (Human mTOR (FLAG-TOR)) | IC50 (PI3K-α) | IC50 (PI3K-γ)
1 | CCS(=O)(=O)N1CCN(c2nc(-c3ccc(NC(=O)Nc4ccc(C(=O)NCCCN(C)C)cc4)cc3)nc(N3CCOCC3)n2)CC1 [Example 653, N-[3-(dimethylamino)propyl]-4-{[(4-{4-[4-(ethylsulfonyl)piperazin-1-yl]-6-morpholin-4-yl-1,3,5-triazin-2-yl}phenyl)carbamoyl]amino}benzamide] | 34 nM | 7 nM | 4.1 nM | 
2 | CCS(=O)(=O)N1CCN(c2nc(-c3ccc(NC(=O)Nc4ccc(C(=O)NCCN(C)C)cc4)cc3)nc(N3CCOCC3)n2)CC1 [Example 654, N-[2-(dimethylamino)ethyl]-4-{[(4-{4-[4-(ethylsulfonyl)piperazin-1-yl]-6-morpholin-4-yl-1,3,5-triazin-2-yl}phenyl)carbamoyl]amino}benzamide] | 70 nM | 8 nM | 6 nM | 
3 | CC(C)N1CCCN(c2nc(-c3ccc(NC(=O)Nc4ccc(C(=O)O)cc4)cc3)nc(N3CCOCC3)n2)CC1 [Example 655, 4-{[(4-{4-[4-(1-methylethyl)-1,4-diazepan-1-yl]-6-morpholin-4-yl-1,3,5-triazin-2-yl}phenyl)carbamoyl]amino}benzoic acid] | 746 nM | 625 nM | 91.5 nM | 
4 | COC(=O)c1ccc(NC(=O)Nc2ccc(-c3nc(N4CCOCC4)nc(N4CCC(NC(C)=O)CC4)n3)cc2)cc1 [Example 656, methyl 4-{[(4-{4-[4-(acetylamino)piperidin-1-yl]-6-morpholin-4-yl-1,3,5-triazin-2-yl}phenyl)carbamoyl]amino}benzoate] | 651 nM | 19 nM | 73 nM | 
5 | CC(C)N1CCCN(c2nc(-c3ccc(NC(=O)Nc4ccc(C(=O)N5CCN(C)CC5)cc4)cc3)nc(N3CCOCC3)n2)CC1 [Example 657, 1-(4-{4-[4-(1-methylethyl)-1,4-diazepan-1-yl]-6-morpholin-4-yl-1,3,5-triazin-2-yl}phenyl)-3-{4-[(4-methylpiperazin-1-yl)carbonyl]phenyl}urea] | 128 nM | 385 nM | 11.5 nM | 
6 | CC(=O)NC1CCN(c2nc(-c3ccc(NC(=O)Nc4ccncc4)cc3)nc(N3CCOCC3)n2)CC1 [Example 658, N-[1-(4-morpholin-4-yl-6-{4-[(pyridin-4-ylcarbamoyl)amino]phenyl}-1,3,5-triazin-2-yl)piperidin-4-yl]acetamide] | 265 nM | 20 nM | 41.5 nM | 
7 | CC(=O)NC1CCN(c2nc(-c3ccc(NC(=O)Nc4ccc(C(=O)O)cc4)cc3)nc(N3CCOCC3)n2)CC1 [Example 659, 4-{[(4-{4-[4-(acetylamino)piperidin-1-yl]-6-morpholin-4-yl-1,3,5-triazin-2-yl}phenyl)carbamoyl]amino}benzoic acid] |  | 720 nM | 3620 nM | ≥ 10000 nM
8 | CC(C)N1CCCN(c2nc(-c3ccc(NC(=O)Nc4ccc(C(=O)NCCN(C)C)cc4)cc3)nc(N3CCOCC3)n2)CC1 [Example 660, N-[2-(dimethylamino)ethyl]-4-{[(4-{4-[4-(1-methylethyl)-1,4-diazepan-1-yl]-6-morpholin-4-yl-1,3,5-triazin-2-yl}phenyl)carbamoyl]amino}benzamide] | 168 nM | 305 nM | 7.5 nM | 
9 | CC(=O)NC1CCN(C(=O)c2ccc(NC(=O)Nc3ccc(-c4nc(N5CCOCC5)nc(N5CCCN(C(C)C)CC5)n4)cc3)cc2)CC1 [Example 661, N-{1-[(4-{[(4-{4-[4-(1-methylethyl)-1,4-diazepan-1-yl]-6-morpholin-4-yl-1,3,5-triazin-2-yl}phenyl)carbamoyl]amino}phenyl)carbonyl]piperidin-4-yl}acetamide] | 462 nM | 580 nM | 56.5 nM | 
10 | CCN1CCN(C(=O)c2ccc(NC(=O)Nc3ccc(-c4nc(N5CCOCC5)nc(N5CCCN(C(C)C)CC5)n4)cc3)cc2)CC1 [Example 662, 1-{4-[(4-ethylpiperazin-1-yl)carbonyl]phenyl}-3-(4-{4-[4-(1-methylethyl)-1,4-diazepan-1-yl]-6-morpholin-4-yl-1,3,5-triazin-2-yl}phenyl)urea] | 197 nM | 770 nM | 34.3 nM | 
11 | CC(C)N1CCN(C(=O)c2ccc(NC(=O)Nc3ccc(-c4nc(N5CCOCC5)nc(N5CCCN(C(C)C)CC5)n4)cc3)cc2)CC1 [Example 663, 1-(4-{4-[4-(1-methylethyl)-1,4-diazepan-1-yl]-6-morpholin-4-yl-1,3,5-triazin-2-yl}phenyl)-3-(4-{[4-(1-methylethyl)piperazin-1-yl]carbonyl}phenyl)urea] | 296 nM | 590 nM | 47.3 nM | 
12 | CCCCN1CCN(C(=O)c2ccc(NC(=O)Nc3ccc(-c4nc(N5CCOCC5)nc(N5CCCN(C(C)C)CC5)n4)cc3)cc2)CC1 [Example 665, 1-{4-[(4-butylpiperazin-1-yl)carbonyl]phenyl}-3-(4-{4-[4-(1-methylethyl)-1,4-diazepan-1-yl]-6-morpholin-4-yl-1,3,5-triazin-2-yl}phenyl)urea] | 284 nM | 445 nM | 71 nM | 
13 | COC(=O)c1ccc(NC(=O)Nc2ccc(-c3nc(N4CCOCC4)nc(N4C5CCC4COC5)n3)cc2)cc1 [Example 693, methyl 4-[({4-[4-morpholin-4-yl-6-(3-oxa-8-azabicyclo[3.2.1]oct-8-yl)-1,3,5-triazin-2-yl]phenyl}carbamoyl)amino]benzoate] | 289 nM | 1.35 nM | 69 nM | 
14 | CN1CCN(c2ccc(NC(=O)Nc3ccc(-c4nc(NS(=O)(=O)c5ccccc5)nc(N5CCOCC5)n4)cc3)cc2)CC1 [Example 782, N-{4-[4-({[4-(4-methylpiperazin-1-yl)phenyl]carbamoyl}amino)phenyl]-6-morpholin-4-yl-1,3,5-triazin-2-yl}benzenesulfonamide] | 252 nM | 110 nM | 124 nM | 
15 | CN(C)CCOc1ccc(NC(=O)Nc2ccc(-c3nc(NS(=O)(=O)c4ccccc4)nc(N4CCOCC4)n3)cc2)cc1 [Example 783, N-(4-{4-[({4-[2-(dimethylamino)ethoxy]phenyl}carbamoyl)amino]phenyl}-6-morpholin-4-yl-1,3,5-triazin-2-yl)benzenesulfonamide] | 736 nM | 295 nM | 346 nM | 
16 | COC(=O)c1ccc(NC(=O)Nc2ccc(-c3nc(NS(=O)(=O)c4ccccc4)nc(N4CCOCC4)n3)cc2)cc1 [Example 789, methyl 4-{[(4-{4-morpholin-4-yl-6-[(phenylsulfonyl)amino]-1,3,5-triazin-2-yl}phenyl)carbamoyl]amino}benzoate] | 1160 nM | 59 nM | 870 nM | 
17 | O=C(Nc1ccc(C(=O)O)cc1)Nc1ccc(-c2nc(NS(=O)(=O)c3ccccc3)nc(N3CCOCC3)n2)cc1 [Example 790, 4-{[(4-{4-morpholin-4-yl-6-[(phenylsulfonyl)amino]-1,3,5-triazin-2-yl}phenyl)carbamoyl]amino}benzoic acid] | 593 nM | 65 nM | 244 nM | 
18 | Cc1cc(NC(=O)Nc2ccc(-c3nc(N4CCOCC4)nc(N4CC5CCC4CO5)n3)cc2)n(C)n1 (stereo not drawn) [Example 808, 1-(1,3-dimethyl-1H-pyrazol-5-yl)-3-{4-[4-morpholin-4-yl-6-(2-oxa-5-azabicyclo[2.2.2]oct-5-yl)-1,3,5-triazin-2-yl]phenyl}urea] | 1260 nM | 260 nM | 381 nM | 

Source: patent US20090304692A1, “TRIAZINE COMPOUNDS AS PI3 KINASE AND MTOR INHIBITORS” (Wyeth, priority 2008, published 2009)
